Source: US12234211B2, “Cycloolefin substituted heteroaromatic compounds and their use” (HUTCHISON MEDIPHARMA LIMITED, priority 2017, dated 2025)

Assays:
[1] = Metabolic stability test in liver microsomes (rat); format: in vitro ADME; conditions: percentage of remaining compound after incubation for 30 minutes vs 0 minute; 1 μM compound; 0.5 mg/mL liver microsomes; 37° C.
Method: (§1) Male CD1 mouse liver microsomes was supplied by Research Institute for Liver Diseases (Shanghai) Co., Ltd. Male SD rat liver microsomes was supplied by BioreclamationIVT in US.
(§2) Phenacetin, glucose-6-phosphate (G-6-P), glucose-6-phosphate dehydrogenase (G-6-PD), and nicotinamide adenine dinucleotide phosphate (NADP) were supplied by Sigma-Aldrich (Missouri, USA).
(§3) 10 mM stock solution of test compound: Certain amount of test compound was weighed and dissolved in certain volume of dimethylsulfoxide (DMSO) to get the stock solution of test compound at 10 mM.
(§4) Reaction termination solution: Certain amount of phenacetin as internal standard was weighed and dissolved in acetonitrile to get the reaction termination solution at 1000 ng/mL, and stored at room temperature for use.
(§5) The stock solution of test compound was diluted to the designated concentration with organic solution (usually the mixtures of acetonitrile, methanol and water with different portions depending on the compound solution) to make the final concentration to be 1 μM and the contents of organic solvents no more than 1% (For DMSO, the controlled margin was 0.1%) in the final incubation system. 100 mM NADP, 500 mM G-6-P and 100 U/mL G-6-PDH were mixed and diluted with ultrapure water to provide the NADPH regenerating system containing 1 mM NADP, 5 mM G-6-P and 1 U/mL G-6-PD, which was pre-incubated at 37° C. water-bath for 10 min and then cooled on ice until being added into the reaction system. 20 mg/mL liver microsomes was mixed with 200 mM PBS and diluted with ultrapure water to make the concentrations of liver microsomes and PBS to be 0.5 mg/mL and 50 mM in the final incubation system, respectively. After the diluted liver microsomes was mixed with the NADPH regenerating solution, certain volumes of 100 mM EDTA and 300 mM MgCl2 (concentration of EDTA and MgCl2 in the final incubation system is 1 mM and 3 mM, respectively) were added, and the incubation system was put into 37° C. water bath. The incubation was commenced by adding the stock solution of test compound and maintained for 30 min. The incubation was terminated by adding the reaction termination solution. The 0 min sample was prepared by adding the reaction termination solution to the incubation system immediately prior to putting the system into the water bath with the addition of the stock solution of test compound. The terminated incubation mixtures were vortexed and centrifuged at 4400 rpm for 10 min, and the supernatant was collected for LC-MS/MS analysis.
(§6) The concentration of test compound was determined using LC-MS/MS method. Using the peak area ratio of the compound and the internal standard as an index, the percentage of remaining compound after incubation for 30 minutes as compared with the 0 minute sample was calculated, and the metabolic stability of the compound was evaluated.

[2] = Metabolic stability test in liver microsomes (mouse); format: in vitro ADME; conditions: percentage of remaining compound after incubation for 30 minutes vs 0 minute; 1 μM compound; 0.5 mg/mL liver microsomes; 37° C.
Method: as §1, §2, §3, §4, §5, §6

IDH2-R140Q = molecular target: T1, IDH2-R140Q (Homo sapiens, UniProt P48735, R140Q); assay: Fluorescent determination of IDH2-R140Q cell activity (2-HG in U87MGR140Q cells); format: cell-based; conditions: 72 hours incubation, read-out: IC50 (2-HG inhibition)
T1 construct: expressed in transfected cells
T1 sequence (P48735 40-452 R140Q): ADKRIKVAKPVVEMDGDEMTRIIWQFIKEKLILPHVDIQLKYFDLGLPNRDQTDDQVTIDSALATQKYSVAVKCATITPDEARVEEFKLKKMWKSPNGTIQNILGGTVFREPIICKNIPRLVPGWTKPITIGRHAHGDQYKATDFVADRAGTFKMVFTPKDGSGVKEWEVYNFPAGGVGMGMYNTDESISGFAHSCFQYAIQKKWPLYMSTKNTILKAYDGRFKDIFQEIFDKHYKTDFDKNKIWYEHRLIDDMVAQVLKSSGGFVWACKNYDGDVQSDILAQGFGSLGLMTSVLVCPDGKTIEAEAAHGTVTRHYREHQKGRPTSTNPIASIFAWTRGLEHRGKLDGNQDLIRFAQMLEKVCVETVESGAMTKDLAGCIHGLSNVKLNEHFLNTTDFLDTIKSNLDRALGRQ

IDH1-R132H = molecular target: T2, IDH1-R132H (Homo sapiens, UniProt O75874, R132H); assay: Fluorescent determination of IDH1-R132H cell activity (2-HG in U87MGR132H cells); format: cell-based; conditions: 2-HG inhibition in U87MGR132H cells transfected with IDH1-R132H mutant plasmid
T2 construct: expressed in transfected cells; host or cells: U87MG cells (U87MGR132H)
T2 sequence (O75874 whole entry R132H): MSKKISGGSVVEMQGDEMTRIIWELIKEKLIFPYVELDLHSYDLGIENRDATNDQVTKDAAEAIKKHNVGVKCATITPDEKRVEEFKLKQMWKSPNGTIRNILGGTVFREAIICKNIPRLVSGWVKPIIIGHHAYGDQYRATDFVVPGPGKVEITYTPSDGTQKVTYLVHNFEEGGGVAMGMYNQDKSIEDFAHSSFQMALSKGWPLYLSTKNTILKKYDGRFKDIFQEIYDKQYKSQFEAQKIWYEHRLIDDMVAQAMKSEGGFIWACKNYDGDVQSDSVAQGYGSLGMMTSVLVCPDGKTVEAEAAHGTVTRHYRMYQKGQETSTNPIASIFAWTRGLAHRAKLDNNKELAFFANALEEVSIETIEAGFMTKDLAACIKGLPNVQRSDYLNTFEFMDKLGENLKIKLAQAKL

Rat liver microsome stability [1] | Mouse liver microsome stability [2] | IC50 (IDH2-R140Q) | IC50 (IDH1-R132H) | Structure (SMILES)
96.6% | 83.7% |  |  | [2H]C1([2H])CCC(c2nc(N[C@H](C)C(F)(F)F)nc(N[C@H](C)C(F)(F)F)n2)=C(F)C1([2H])O (mixture of isomers) [Compound 83, 3-(4,6-bis(((R)-1,1,1-trifluoropropan-2-yl)amino)-1,3,5-triazin-2-yl)-2-fluorocyclohex-2-en-1,6,6-D3-1-ol]
82.4% | 80.9% |  |  | [2H]C1([2H])CCC(c2nc(NC3CC(F)(F)C3)nc(N[C@@H](C)C(F)(F)F)n2)=C(F)C1([2H])O (mixture of isomers) [Compound 90]
 |  | 0.057 µM | 2.96 µM | [2H]C1([2H])CCC(c2nc(NOC(C)(C)C)nc(Nc3ccnc(C(F)(F)F)c3)n2)=C(F)C1O (centres unmarked) [Compound 89]
 |  | 0.177 µM | 0.476 µM | C[C@@H](Nc1nc(NC2CCC(F)(F)CC2)nc(C2=CC(O)CCC2)n1)C(F)(F)F (some centres unmarked) [Compound 181]
 |  | 1.5 µM | > 10 µM | CC(C)(O)CNc1nc(Nc2ccc3sncc3c2)nc(C2=C(F)C(O)CCC2)n1 (centres unmarked) [Compound 199]
 |  | 0.209 µM | > 10 µM | Cc1cc(Nc2nc(NOC(C)(C)C)nc(C3=C(F)C(O)CCC3)n2)ccn1 (centres unmarked) [Compound 204]
 |  | 0.803 µM | > 10 µM | Cc1nccc(Nc2nc(NOC(C)(C)C)nc(C3=C(F)C(O)CCC3)n2)n1 (centres unmarked) [Compound 205]
 |  | 0.063 µM | > 10 µM | CCONc1nc(Nc2ccnc(C(F)(F)F)c2)nc(C2=C(F)C(O)C(F)(F)CC2)n1 (centres unmarked) [Compound 212]
 |  | 0.038 µM | > 10 µM | OC1C(F)=C(c2nc(NOCC3CC3)nc(Nc3ccnc(C(F)(F)F)c3)n2)CCC1(F)F (centres unmarked) [Compound 213]
 |  | 0.108 µM | > 10 µM | CC(C)(C)ONc1nc(Nc2ccnc(C(F)(F)F)n2)nc(C2=C(F)C(O)C(F)(F)CC2)n1 (centres unmarked) [Compound 214]
 |  | 0.079 µM | > 10 µM | CC(C)(C)ONc1nc(Nc2ccnc(F)c2)nc(C2=C(F)C(O)C(F)(F)CC2)n1 (centres unmarked) [Compound 215]
 |  | 0.082 µM | 8.52 µM | CC(C)(C)ONc1nc(Nc2ccnc(Cl)c2)nc(C2=C(F)C(O)C(F)(F)CC2)n1 (centres unmarked) [Compound 216]
 |  | 0.069 µM | > 10 µM | CCCONc1nc(Nc2ccnc(C(F)(F)F)c2)nc(C2=C(F)C(O)C(F)(F)CC2)n1 (centres unmarked) [Compound 217]
 |  | 0.381 µM | > 10 µM | OC1C(F)=C(c2nc(Nc3ccnc(C(F)(F)F)c3)nc(N3CCC(F)(F)C3)n2)CCC1(F)F (centres unmarked) [Compound 218]
 |  | 0.059 µM | 2.88 µM | OC1C(F)=C(c2nc(Nc3ccnc(C(F)(F)F)c3)nc(NC(C3CC3)C3CC3)n2)CCC1(F)F (centres unmarked) [Compound 220]
 |  | 0.137 µM | 4.65 µM | C[C@@H](Nc1nc(NC2CC2)nc(C2=C(F)C(O)CCC2)n1)C(F)(F)F (some centres unmarked) [Compound 224]
 |  | 0.037 µM | 1.53 µM | CCCNc1nc(N[C@H](C)C(F)(F)F)nc(C2=C(F)C(O)[C@@H](F)CC2)n1 (some centres unmarked) [Compound 231]

Rat liver microsome stability [1] | Mouse liver microsome stability [2] | IC50 (IDH2-R140Q) | IC50 (IDH1-R132H) | Structure (SMILES)
 |  | 0.078 µM | 1.76 µM | C[C@@H](Nc1nc(NCC2CC2)nc(C2=C(F)C(O)C(F)(F)CC2)n1)C(F)(F)F (stereo partly drawn) [Compound 234, 3-(4-((Cyclopropylmethyl)amino)-6-(((R)-1,1,1-trifluoropropan-2-yl)amino)-1,3,5-triazin-2-yl)-2,6,6-trifluorocyclohex-2-en-1-ol]
 |  | 0.984 µM | > 10 µM | C[C@@H](Nc1nc(NCCF)nc(C2=C(F)C(O)CCC2)n1)C(F)(F)F (some centres unmarked) [Compound 240]
 |  | 0.1 µM | 2.06 µM | OC1CCCC(c2nc(NCC(F)(F)F)nc(NC3CC(F)(F)C3)n2)=C1F (centres unmarked) [Compound 241]
 |  | 0.053 µM | 1.08 µM | CC(C)Nc1nc(N[C@H](C)C(F)(F)F)nc(C2=C(F)C(O)C(F)(F)CC2)n1 (some centres unmarked) [Compound 244]
 |  | 0.094 µM | 2.23 µM | CC(C)Nc1nc(NC2CC(F)(F)C2)nc(C2=C(F)C(O)C(F)(F)CC2)n1 (centres unmarked) [Compound 261]
 |  | 0.033 µM | 0.043 µM | C[C@@H](Nc1nc(N[C@H](C)C(F)(F)F)nc(C2=C(F)C(O)C(F)CC2)n1)C(F)(F)F (stereo partly drawn) [Compound 266, 3-(4,6-Bis(((R)-1,1,1-trifluoropropan-2-yl)amino)-1,3,5-triazin-2-yl)-2,6-difluorocyclohex-2-en-1-D-1-ol]
98.2% | 91.5% |  |  | [2H]C1(O)C(F)=C(c2nc(N[C@H](C)C(F)(F)F)nc(N[C@H](C)C(F)(F)F)n2)CCC1F (stereo partly drawn) [Compound 266, 3-(4,6-Bis(((R)-1,1,1-trifluoropropan-2-yl)amino)-1,3,5-triazin-2-yl)-2,6-difluorocyclohex-2-en-1-D-1-ol]
 |  | 1.33 µM | 3.57 µM | C[C@@H](Nc1nc(N[C@H](C)C(F)(F)F)nc(C2=C(F)C(O)C(F)CC2)n1)C(F)(F)F (stereo partly drawn) [Compound 267, 3-(4,6-Bis(((R)-1,1,1-trifluoropropan-2-yl)amino)-1,3,5-triazin-2-yl)-2,6-difluorocyclohex-2-en-1-D-1-ol]
 |  | 0.349 µM | 0.939 µM | C[C@@H](Nc1nc(N[C@H](C)C(F)(F)F)nc(C2=C(F)C(O)C(F)CC2)n1)C(F)(F)F (stereo partly drawn) [Compound 268, 3-(4,6-Bis(((R)-1,1,1-trifluoropropan-2-yl)amino)-1,3,5-triazin-2-yl)-2,6-difluorocyclohex-2-en-1-D-1-ol]
 |  | 0.137 µM | 0.296 µM | C[C@@H](Nc1nc(N[C@H](C)C(F)(F)F)nc(C2=C(F)C(O)C(F)CC2)n1)C(F)(F)F (stereo partly drawn) [Compound 269, 3-(4,6-Bis(((R)-1,1,1-trifluoropropan-2-yl)amino)-1,3,5-triazin-2-yl)-2,6-difluorocyclohex-2-en-1-D-1-ol]
 |  | 0.084 µM | 3.28 µM | [2H]C1(O)C(F)=C(c2nc(NC(C)C)nc(NC3CC(F)(F)C3)n2)CCC1(F)F [Compound 274, 3-(4-((3,3-difluorocyclobutyl)amino)-6-(isopropylamino)-1,3,5-triazin-2-yl)-2,6,6-trifluorocyclohex-2-en-1-D-1-ol]
 |  | 0.062 µM | 8.02 µM | CC(C)(C)ONc1nc(Nc2ccnc(C(F)(F)F)c2)nc(C2=C(F)C(O)C(F)(F)CC2)n1 (centres unmarked) [Compound 275]
 |  | 0.081 µM | 8.37 µM | [2H]C1(O)C(F)=C(c2nc(NOC(C)(C)C)nc(Nc3ccnc(C(F)(F)F)c3)n2)CCC1(F)F (centres unmarked) [Compound 276]
 |  | 0.156 µM | 1.03 µM | C[C@H](Nc1nc(N[C@H](C)C(F)(F)F)nc(C2=C(F)C(O)C(F)(F)CC2)n1)C(F)(F)F (some centres unmarked) [Compound 277]
 |  | > 10 µM | > 10 µM | C[C@@H](Nc1nc(N)nc(C2=C(F)C(O)C(F)(F)CC2)n1)C(F)(F)F (stereo partly drawn) [Compound 280, 3-(4-Amino-6-(((R)-1,1,1-trifluoropropan-2-yl)amino)-1,3,5-triazin-2-yl)-2,6,6-trifluoro-cyclohex-2-en-1-ol]
 |  | 0.423 µM | 1.14 µM | C[C@@H](Nc1nc(N[C@H](C)C(F)(F)F)nc(C2=C(F)C(=O)C(F)(F)CC2)n1)C(F)(F)F [Compound 296]
 |  | 0.62 µM | > 10 µM | CONc1nc(Nc2ccnc(C(F)(F)F)c2)nc(C2=C(F)C(O)C(F)(F)CC2)n1 (centres unmarked) [Compound 298]
